Test results taken from patent US20250297116A1, “PRECURSOR COMPOUNDS FOR MOLECULAR COATINGS” (Apeel Technology, Inc., priority 2015, published 2025).

Tests used:
[1] = tested on: edible substrates (blueberries, bananas, strawberries, lemons, avocados, and limes); assay: Coating studies on edible substrates: mass loss over time and visible residues; conditions: coated edible substrates
Experimental: For these studies, mixtures (which were typically solid but in some cases were oils) comprising compounds of Formula I and/or compounds of Formula II and/or other additives (e.g., 1-monoacylglycerides, fatty acids, esters, amides, amines, thiols, carboxylic acids, ethers, aliphatic waxes, alcohols, salts (inorganic and organic), or combinations thereof) were first formed. The mixtures were then dissolved in a solvent (e.g., either ethanol or a water and ethanol mixture, for instance in a 1:2 water:ethanol ratio or lower) to form a solution, from which coatings were formed over a variety of edible substrates (blueberries, bananas, strawberries, lemons, avocados, and limes). Details about the specific formulations used and procedures for the forming of the coatings are described below for illustrative purposes with reference to FIGS. 2-18. The substrates were then examined for the presence of visible residues on the surface and tested for percent mass loss over time, and were compared to control samples without the coatings. A variety of different compositions of mixtures (e.g., solid mixtures) were used to form coatings on a variety of edible substrates, where the specific compositions and coating procedures are described below with reference to FIGS. 2-18. Some of the compositions were substantially pure (e.g., at least 90% or at least 95% pure) 2-monoacylglyceride compounds (e.g., compounds of Formula I). For example, coatings were formed from compositions that were substantially pure PA-2G, as well as from compositions that were substantially pure SA-2G. Some of the compositions were substantially pure (e.g., at least 90% or at least 95% pure) 1-monoacylglyceride compounds (e.g., compounds of Formula II). For example, coatings were formed from compositions that were substantially pure PA-1G, compositions that were substantially pure OA-1G, and compositions that were substantially pure SA-1G. Some of the compositions included a compound of Formula I and an additive, where for each of these compositions various ratios of the compound of Formula I to the additive were tested. For example, coatings were formed from compositions which included the combinations of a compound of Formula I and an additive as listed in Table 1 below. Additives included, for example, a saturated or unsaturated compound of Formula II, a saturated or unsaturated fatty acid, an ethyl ester, and/or a second compound of Formula I which is different from the (first) compound of Formula I (e.g., has a different length carbon chain).

[2] = tested on: finger limes; assay: Average daily mass loss rate and residues of coated finger limes; conditions: bag coated, 10 mg/mL in ethanol, over several days, 24 finger limes per group, 23-27°C, 40-55% humidity
Experimental: FIGS. 2-18 illustrate the effects of coating a variety of edible substrates with the compositions described herein. To form the coatings, solid mixtures of the compositions were first fully dissolved in ethanol at a concentration of 10 mg/mL (except where a different concentration is specified) to form a solution. The solution was then applied to the substrate either by spraying or dip coating, as detailed for each of the substrates below. The substrates were then dried on drying racks under ambient conditions (temperature in the range of 23° C.-27° C., humidity in the range of 40%-55%) until all of the solvent had evaporated, allowing the coatings to form over the substrates. […] For all mixtures described, PA was purchased from Sigma Aldrich, PA-1G was purchased from Tokyo Chemical Industry Co, PA-2G was prepared following the method of Example 1 above, SA was purchased from Sigma Aldrich, SA-1G was purchased from Alfa Aesar, SA-2G was prepared following the method of Example 3 above, MA was purchased from Sigma Aldrich, MA-1G was purchased from Tokyo Chemical Industry Co, OA was purchased from Sigma Aldrich, and EtPA was purchased from Sigma Aldrich.
FIG. 11 is a graph showing average daily mass loss rates for finger limes coated with various mixtures of PA-2G (compound of Formula I) and PA-1G (additive) measured over the course of several days. […]

Row | Structure (SMILES) | reduction in mass loss versus uncoated control samples [1] | average daily mass loss rate [2]
1 | CCCCCCCCCCCCCCCCCC(=O)OCC(O)CO (centres unmarked) [SA-1G, 2,3-dihydroxypropan-1-yl octadecanoate] | at most a nominal reduction in mass loss | 
2 | CCCCCCCC/C=C\CCCCCCCC(=O)OCC(O)CO (centres unmarked) [OA-1G, 2,3-dihydroxypropan-1-yl (9Z)-Octadecenoate] | at most a nominal reduction in mass loss | 
3 | CCCCCCCCCCCCCCCC(=O)OC(CO)CO [PA-2G, 1,3-dihydroxypropan-2-yl palmitate] | at most a nominal reduction in mass loss | under 4 % per day
4 | CCCCCCCCCCCCCCCCCC(=O)OC(CO)CO [SA-2G, 1,3-dihydroxypropan-2-yl octadecanoate] | at most a nominal reduction in mass loss | 
5 | CCCCCCCCCCCCCC(=O)OCC(O)CO (centres unmarked) [MA-1G, 2,3-dihydroxypropan-1-yl tetradecanoate] | at most a nominal reduction in mass loss | 
6 | CCCCCCCCCCCCCCCC(=O)OCC(O)CO (centres unmarked) [PA-1G, 2,3-dihydroxypropan-1-yl palmitate] | at most a nominal reduction in mass loss | over 4 % per day
